Data published in US10485741B2 (WONKWANG UNIVERSITY CENTER FOR INDUSTRY-ACADEMY COOPERATION, priority 2016, dated 2019).
In brackets after ≈: the same amount, converted by molar mass. Like-named read-outs stand apart in the source and are kept apart here.

Assays:
Assay type in all cases: cell-based, Streptococcus mutans
S. mutans [1] = experiment: Minimum inhibitory concentration (MIC) and minimal bactericidal concentration (MBC), 96-well BHI broth dilution; details: for MIC: BHI broth, 24-hour culture, absorbance at 600 nm
Procedure: The minimum inhibitory concentration and minimal bactericidal concentration of antibacterial substances were identified using S. mutans, which is related to dental caries, as the strain. Specifically, in order to measure MIC, a 96-well plate containing 100 μL of BHI broth per well was used. Antibacterial substances were used at a concentration of 16 mM, and the substance No. 1-2 of Example 1 was used at a concentration of 1 mM. The antibacterial materials were transferred to the first well and diluted stepwise. The substance No. 1-2 was diluted to 1 mM to 0.004375 mM and the other antibacterial substances were diluted to 16 mM to 0.007 mM. S. mutans was activated using BHI broth as the medium and cultured in a CO2 incubator at 37° C. for 24 hours. Then, the bacteria were cultured for another 6 hours, and then 100 μL thereof was added to each well of the 96-well plate. After 24-hour culture, the minimum inhibitory concentration was determined by measuring the absorbance at 600 nm with Enzyme-linked immuno-assay reader (Spectra MAX250, Molecular Devices Co.).

S. mutans [2] = experiment: Formation of Semi-inhibition zone by fluoride varnish mixed with antibacterial substance (agar diffusion); details: for Semi-inhibition zone, Fluoride varnish + 1 mM substance / Semi-inhibition zone, Fluoride varnish + 10 mM substance: Table 4, substance mixed 1:1 with fluoride varnish, positive control = ampicillin alone
From the text: In addition, the formation of Semi-inhibition zone was investigated according to the same method as in Test Example 1.

S. mutans [3] = experiment: Agar diffusion test of fluoride varnish of hydrogenated rosin mixed with antibacterial substance, inhibition zone; details: for Inhibition zone, Fluoride varnish + 1 mM substance / Inhibition zone, Fluoride varnish + 10 mM substance: substance mixed 1:1 with fluoride varnish, positive control = ampicillin alone; for antibacterial activities of fluoride varnish mixed with substance compared with a fluoride varnish alone (in words): 1 mM or 10 mM antibacterial substance
Procedure: Antibacterial substance powders were dissolved in DMSO to 100 mM and stored. It was diluted with DMSO to prepare 20 mM and 2 mM antibacterial substances.
Specifically, S. mutans was primarily cultured in a BHI medium in a CO2 incubator at 37°C. for 24 hours. Then, 200 μL of a suspension of S. mutans was inoculated into BHI and secondarily cultured for 6 hours. Then, the OD value was measured with Eppendorf Biophotometer plus. After the measurement, the bacteria were mixed with top agar and then inoculated into the agar medium containing base agar. After top agar hardened, a 6 mm diameter paper disc was placed on the agar medium.
(§1) 5 μL of each of 0.1 mM, 1 mM and 10 mM antibacterial substances was dropped on the paper disc. 10 μL/ml of ampicilin was used as the positive control, and PBS was used as the negative control. After culturing in a CO2 incubator at 37°C for 24 hours, the diameter of the S. mutans inhibition zone formed around the paper disc was measured in two perpendicular locations and the average was calculated to evaluate the antibacterial activities. The average was expressed in mm.
Fluoride varnishes mixed with an antibacterial substance which comprise an antibacterial substance tested in Test Example 1 were prepared according to the method described in Example 2 and the antibacterial activities thereof were tested.

S. mutans (ATCC 25175) = experiment: Agar diffusion test (paper disc), antibacterial substance alone; details: for diameter of the S. mutans inhibition zone, 0.1 mM antibacterial substance alone: 5 μL of 0.1 mM substance on 6 mm paper disc; for diameter of the S. mutans inhibition zone, 0.1 mM antibacterial substance alone / diameter of the S. mutans inhibition zone, 1 mM antibacterial substance alone / diameter of the S. mutans inhibition zone, 10 mM antibacterial substance alone: 24 h, positive control 10 μL/ml ampicillin; for diameter of the S. mutans inhibition zone, 1 mM antibacterial substance alone: 5 μL of 1 mM substance on 6 mm paper disc; for diameter of the S. mutans inhibition zone, 10 mM antibacterial substance alone: 5 μL of 10 mM substance on 6 mm paper disc; for antibacterial activities against S. mutans (in words): screening from a total 100 substances; for activities against S. mutans (in words): 0.1 mM antibacterial substance
Procedure: as §1, with “Specifically, S. mutans was primarily cultured in a BHI medium in a CO2 incubator at 37°C. for 24 hours. Then, 200 μL of a suspension of S. mutans was inoculated into BHI and secondarily cultured for 6 hours. Then, the OD value was measured with Eppendorf Biophotometer plus. After the measurement, the bacteria were mixed with top agar and then inoculated into the agar medium containing base agar. After top agar hardened, a 6 mm diameter paper disc was placed on the agar medium. 5” for “5”

[4] = Streptococcus mutans, 24 h, read-out: MIC
[5] = Streptococcus mutans, read-out: MBC
[6] = listed as xanthorrhizol (BioAlpha)
[7] = listed as xanthorrhizol (Santa Cruz)

SMILES	MIC, rank (in words) (S. mutans [1])	MIC (S. mutans [1]; [4]) [µM]	MBC (S. mutans [1]; [5]) [µM]	Semi-inhibition zone, Fluoride varnish + 1 mM substance (S. mutans [2]) [mm]	Semi-inhibition zone, Fluoride varnish + 10 mM substance (S. mutans [2]) [mm]	Inhibition zone, Fluoride varnish + 1 mM substance (S. mutans [3]; primary test (Table 2)) [mm]	Inhibition zone, Fluoride varnish + 10 mM substance (S. mutans [3]; primary test (Table 2)) [mm]	antibacterial activities of fluoride varnish mixed with substance compared with a fluoride varnish alone (in words) (S. mutans [3]; primary test)	Inhibition zone, Fluoride varnish + 1 mM substance (S. mutans [3]; secondary test (Table 3)) [mm]	Inhibition zone, Fluoride varnish + 10 mM substance (S. mutans [3]; secondary test (Table 3)) [mm]	diameter of the S. mutans inhibition zone, 0.1 mM antibacterial substance alone (S. mutans (ATCC 25175)) [mm]	diameter of the S. mutans inhibition zone, 1 mM antibacterial substance alone (S. mutans (ATCC 25175)) [mm]	diameter of the S. mutans inhibition zone, 10 mM antibacterial substance alone (S. mutans (ATCC 25175)) [mm]	antibacterial activities against S. mutans (in words) (S. mutans (ATCC 25175))	further results
C=C[C@@](C)(/C=C/c1ccc(O)cc1)CCC=C(C)C [No. 2, Bakuchiol]	lowest MIC	15 (≈ 3.85 µg/mL)	31 (≈ 7.95 µg/mL)	22.87	26.705	9.55	9.82	significant antibacterial activities	8.53	10.10	6	8.9	14.5	significant antibacterial activities	MBC, rank (in words) (S. mutans [1]): lowest MBC
CC(C)=CCC[C@@H](C)c1ccc(C)c(O)c1 [xanthorrhizol]								significant antibacterial activities						significant antibacterial activities	activities against S. mutans (in words) (S. mutans (ATCC 25175)): significant activities
CC1(C)S[C@@H]2[C@H](NC(=O)[C@H](N)c3ccccc3)C(=O)N2[C@H]1C(=O)O [Positive control group, ampicillin, reference compound]				13.55	14.84	18.05	18.72		13.55	14.84	17.24	22.2	22.4		formation of Semi-inhibition zone (in words) (S. mutans [2]): did not form a Semi-inhibition zone
CC(C)=CCc1cc(C(=O)/C=C/c2ccc(O)cc2)c(O)cc1O [No. 3, Bavachalcone]	lowest MIC	15 (≈ 4.87 µg/mL)	62 (≈ 20.1 µg/mL)	34.025	20.74	11.31	15.35	significant antibacterial activities	12.79	13.17	9.63	14.51	18.87	significant antibacterial activities	formation of Semi-inhibition zone (in words) (S. mutans [2]): largest Semi-inhibition zone; increase of antibacterial activities of fluoride varnish mixed with substance (S. mutans [3]; primary test, compared with a fluoride varnish alone): ≥ 70%; antibacterial activities of fluoride varnish mixed with substance (in words) (S. mutans [3]; secondary test): remarkable antibacterial activities; activities against S. mutans (in words) (S. mutans (ATCC 25175)): significant activities; activities against S. mutans, rank (in words) (S. mutans (ATCC 25175); 1 mM antibacterial substance): highest activities; activities against S. mutans, rank (in words) (S. mutans (ATCC 25175); 10 mM antibacterial substance): highest activities
CC(C)=CCC[C@@H](C)c1ccc(C)c(O)c1 [No. 1-2, xanthorrhizol]	lowest MIC			12.265		8.58			9.65		8.26	10.3			MIC (S. mutans [1]; [6]): 15 µM (≈ 3.28 µg/mL); MBC (S. mutans [1]; [6]): 62 µM (≈ 13.5 µg/mL)
CC(C)=CCC[C@@H](C)c1ccc(C)c(O)c1 [No. 1-1, xanthorrhizol]				25.515	25.725	9.14	10.62		8.64	10.28	6	6	7.75		MIC (S. mutans [1]; [7]): 62 µM (≈ 13.5 µg/mL); MBC (S. mutans [1]; [7]): 125 µM (≈ 27.3 µg/mL)
CC1(C)C=Cc2cc(C(=O)/C=C/c3ccc(O)cc3)c(O)cc2O1 [No. 5, Bavachromene]		31 (≈ 9.99 µg/mL)	125 (≈ 40.3 µg/mL)	20.79	25.235	10.27	10.60	significant antibacterial activities	8.66	10.48	6	8.75	9.74	significant antibacterial activities	antibacterial activities against S. mutans in all conditions (in words) (S. mutans (ATCC 25175); 10 mM, 1 mM and 0.1 mM): significant antibacterial activities
CC1(C)C=Cc2c(ccc(C(=O)/C=C/c3ccc(O)cc3)c2O)O1 [No. 4, Isobavachromene]	lowest MIC	15 (≈ 4.84 µg/mL)	125 (≈ 40.3 µg/mL)	20.795	24.81	9.94	10.93	significant antibacterial activities	9.17	9.96	6	8.71	9.91	significant antibacterial activities	
